# Laboratory results: PubChem BioAssay AID1963850 (Molecular Pharmacology Branch, DTP, NCI, 2024)
# Tested on: 192522-019-R-J2-PDC complex tumor spheroid viability
# Assay: Anticancer human tumor 192522-019-R-J2-PDC patient-derived colon adenocarcinoma cell line growth inhibition [POLQ]
# Details: for IC50: curve of first compound; for viability, T/C: stronger effect = lower value
# Summary of the method: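 Complex spheroid viability model combining PDC tumour cells with endothelial (HUVEC) and MSC stromal cells. Novobiocin, ART-558 or RP6685 were tested singly and in combination with standard and investigational anticancer drugs. Each was titrated in half-log steps from near clinical Cmax, or from 10 microM where Cmax was unknown.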
# [1] = second compound 0.0316 µM, first compound 0.0316 µM
# [2] = second compound 0.0316 µM, first compound 0.1 µM
# [3] = second compound 0.0316 µM, first compound 0.316 µM
# [4] = second compound 0.0316 µM, first compound 1 µM
# [5] = second compound 0.0316 µM, first compound 3.16 µM
# [6] = second compound 0.0316 µM, first compound 10 µM
# [7] = second compound 0.1 µM, first compound 0.0316 µM
# [8] = second compound 0.1 µM, first compound 0.1 µM
# [9] = second compound 0.1 µM, first compound 0.316 µM
# [10] = second compound 0.1 µM, first compound 1 µM
# [11] = second compound 0.1 µM, first compound 3.16 µM
# [12] = second compound 0.1 µM, first compound 10 µM
# [13] = second compound 0.316 µM, first compound 0.0316 µM
# [14] = second compound 0.316 µM, first compound 0.1 µM
# [15] = second compound 0.316 µM, first compound 0.316 µM
# [16] = second compound 0.316 µM, first compound 1 µM
# [17] = second compound 0.316 µM, first compound 3.16 µM
# [18] = second compound 0.316 µM, first compound 10 µM
# [19] = second compound 1 µM, first compound 0.0316 µM
# [20] = second compound 1 µM, first compound 0.1 µM
# [21] = second compound 1 µM, first compound 0.316 µM
# [22] = second compound 1 µM, first compound 1 µM
# [23] = second compound 1 µM, first compound 3.16 µM
# [24] = second compound 1 µM, first compound 10 µM
# [25] = second compound 3.16 µM, first compound 0.0316 µM
# [26] = second compound 3.16 µM, first compound 0.1 µM
# [27] = second compound 3.16 µM, first compound 0.316 µM
# [28] = second compound 3.16 µM, first compound 1 µM
# [29] = second compound 3.16 µM, first compound 3.16 µM
# [30] = second compound 3.16 µM, first compound 10 µM
# [31] = second compound 10 µM, first compound 0.0316 µM
# [32] = second compound 10 µM, first compound 0.1 µM
# [33] = second compound 10 µM, first compound 0.316 µM
# [34] = second compound 10 µM, first compound 1 µM
# [35] = second compound 10 µM, first compound 3.16 µM
# [36] = second compound 10 µM, first compound 10 µM
# 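Also: spheroids exposed to drugs for seven days before reading.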
# 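For viability, T/C in this document: 100% = DMSO vehicle control viability in luminescence.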
smiles,measurement,setting,value
O=C(Nc1ccc(O)c(NS(=O)(=O)c2ccc(F)cc2)c1)c1ccc(-c2ccccc2)cc1 + COC1C(OC(N)=O)C(O)C(Oc2ccc3c(O)c(NC(=O)c4ccc(O)c(CC=C(C)C)c4)c(=O)oc3c2C)OC1(C)C,IC50,second compound 0.0316 µM,> 10 µM
same,IC50,second compound 0.1 µM,> 10 µM
same,IC50,second compound 0.316 µM,> 10 µM
same,IC50,second compound 1 µM,> 10 µM
same,IC50,second compound 3.16 µM,> 10 µM
same,IC50,second compound 10 µM,> 10 µM
same,"viability, T/C",[1],109%
same,"viability, T/C",[2],97.3%
same,"viability, T/C",[3],95.8%
same,"viability, T/C",[4],92.1%
same,"viability, T/C",[5],93%
same,"viability, T/C",[6],101%
same,"viability, T/C",[7],105%
same,"viability, T/C",[8],88.9%
same,"viability, T/C",[9],97.5%
same,"viability, T/C",[10],102%
same,"viability, T/C",[11],95.5%
same,"viability, T/C",[12],104%
same,"viability, T/C",[13],103%
same,"viability, T/C",[14],89.6%
same,"viability, T/C",[15],98.3%
same,"viability, T/C",[16],93.5%
same,"viability, T/C",[17],94.7%
same,"viability, T/C",[18],96.6%
same,"viability, T/C",[19],95.7%
same,"viability, T/C",[20],93.3%
same,"viability, T/C",[21],111%
same,"viability, T/C",[22],105%
same,"viability, T/C",[23],95.5%
same,"viability, T/C",[24],94.3%
same,"viability, T/C",[25],104%
same,"viability, T/C",[26],103%
same,"viability, T/C",[27],95.7%
same,"viability, T/C",[28],105%
same,"viability, T/C",[29],108%
same,"viability, T/C",[30],102%
same,"viability, T/C",[31],95.9%
same,"viability, T/C",[32],98.2%
same,"viability, T/C",[33],120%
same,"viability, T/C",[34],97.6%
same,"viability, T/C",[35],113%
same,"viability, T/C",[36],105%
Nc1ccn(C2OC(CO)C(O)C2(F)F)c(=O)n1 (stereo unspecified) + Nc1ccc(C#CCN(C(=O)Cc2ncc(C(F)(F)F)cc2C(F)(F)F)c2ccc(F)cc2)nn1,IC50,second compound 0.0316 µM,> 10 µM
same,IC50,second compound 0.1 µM,> 10 µM
same,IC50,second compound 0.316 µM,> 10 µM
same,IC50,second compound 1 µM,> 10 µM
same,IC50,second compound 3.16 µM,> 10 µM
same,IC50,second compound 10 µM,> 10 µM
same,"viability, T/C",[1],100%
same,"viability, T/C",[2],96.1%
same,"viability, T/C",[3],80.6%
same,"viability, T/C",[4],80.3%
same,"viability, T/C",[5],76.3%
same,"viability, T/C",[6],69.5%
same,"viability, T/C",[7],102%
same,"viability, T/C",[8],94%
same,"viability, T/C",[9],81%
same,"viability, T/C",[10],76.8%
same,"viability, T/C",[11],80.9%
same,"viability, T/C",[12],66.8%
same,"viability, T/C",[13],112%
same,"viability, T/C",[14],90.9%
same,"viability, T/C",[15],82.2%
same,"viability, T/C",[16],80.4%
same,"viability, T/C",[17],83.5%
same,"viability, T/C",[18],69.7%
same,"viability, T/C",[19],105%
same,"viability, T/C",[20],94.7%
same,"viability, T/C",[21],88.4%
same,"viability, T/C",[22],82.9%
same,"viability, T/C",[23],82.4%
same,"viability, T/C",[24],69.8%
same,"viability, T/C",[25],104%
same,"viability, T/C",[26],91.4%
same,"viability, T/C",[27],85.1%
same,"viability, T/C",[28],82.3%
same,"viability, T/C",[29],83.8%
same,"viability, T/C",[30],71.4%
same,"viability, T/C",[31],109%
same,"viability, T/C",[32],98.5%
same,"viability, T/C",[33],95.3%
same,"viability, T/C",[34],84.6%
same,"viability, T/C",[35],84.4%
same,"viability, T/C",[36],72.2%
O=C(Nc1ccc(O)c(NS(=O)(=O)c2ccc(F)cc2)c1)c1ccc(-c2ccccc2)cc1 + Nc1ccc(C#CCN(C(=O)Cc2ncc(C(F)(F)F)cc2C(F)(F)F)c2ccc(F)cc2)nn1,IC50,second compound 0.0316 µM,> 10 µM
same,IC50,second compound 0.1 µM,> 10 µM
same,IC50,second compound 0.316 µM,> 10 µM
same,IC50,second compound 1 µM,> 10 µM
same,IC50,second compound 3.16 µM,> 10 µM
same,IC50,second compound 10 µM,> 10 µM
same,"viability, T/C",[1],104%
same,"viability, T/C",[2],101%
same,"viability, T/C",[3],94.6%
same,"viability, T/C",[4],99.2%
same,"viability, T/C",[5],104%
same,"viability, T/C",[6],98.3%
same,"viability, T/C",[7],109%
same,"viability, T/C",[8],103%
same,"viability, T/C",[9],94%
same,"viability, T/C",[10],87.9%
same,"viability, T/C",[11],102%
same,"viability, T/C",[12],103%
same,"viability, T/C",[13],97.2%
same,"viability, T/C",[14],101%
same,"viability, T/C",[15],94.9%
same,"viability, T/C",[16],105%
same,"viability, T/C",[17],105%
same,"viability, T/C",[18],100%
same,"viability, T/C",[19],110%
same,"viability, T/C",[20],98.2%
same,"viability, T/C",[21],97.5%
same,"viability, T/C",[22],91.6%
same,"viability, T/C",[23],101%
same,"viability, T/C",[24],102%
same,"viability, T/C",[25],99.4%
same,"viability, T/C",[26],106%
same,"viability, T/C",[27],102%
same,"viability, T/C",[28],110%
same,"viability, T/C",[29],107%
same,"viability, T/C",[30],111%
same,"viability, T/C",[31],103%
same,"viability, T/C",[32],103%
same,"viability, T/C",[33],109%
same,"viability, T/C",[34],107%
same,"viability, T/C",[35],111%
same,"viability, T/C",[36],103%
